Results on 30 compounds are retold here after US20250282768A1 (Janssen Pharmaceutica NV, priority 2022, published 2025).

The assay relates to p-IKKa levels in L363 (NIK translocated multiple myeloma) cells. Nature of the assay: Assay 2: Effect of compounds on p-IKKa levels in L363 (NIK translocated multiple myeloma) cells. It counts as cell-based. Conditions: Homo sapiens, L-363, 6 h, read-out: Assay 2 IC50 (nM), p-IKKa (Ser 176/180) in BAFF stimulated L363 cells with MG132, 6 h; average if tested more than once. The procedure:
Assay 2: Effect of Compounds on p-IKKa Levels in L363 (NIK Translocated Multiple Myeloma) Cells
All compounds tested were dissolved and serially diluted in DMSO, 1:3 dilution for 11 points in an Echo compatible plate. 100% DMSO was added to columns 12 and 24 of the plate to serve as high and low signal controls. This compound plate was used to spot 20 nL of compound or DMSO into a Greiner 384 well TC plate (781080). The final DMSO concentration was 0.3% (v/v) in cell assays. Human L363 cells (ATCC) were cultured in RPM11640 medium supplemented with GlutaMax, non-essential amino acids, sodium pyruvate and 10% fetal bovine serum. Cells were routinely maintained at densities of 0.2×10^6 cells per ml—2×10^6 cells per mL at 37° C. in a humidified 5% CO2 atmosphere incubator. Cells were passaged twice a week splitting back to obtain the low density. The day before the assay, cells were washed twice in HBSS (Hank's Balanced Salt Solution), resuspended in Dulbecco's Modified Eagle Medium (DMEM)+0.5% IgG and protease free BSA (Jackson Immuno Research Laboratories), +/−250 ng/ml recombinant human B-cell activating factor (BAFF/BLyS/TNFSF13B) and incubated overnight at 37° C. in a humidified 5% CO2 atmosphere (bulk stimulation with or without BAFF). The next day, the cell concentration was adjusted to 1×10^7 cells/ml in DMEM+/−250 ng/ml BAFF +/−10 μM MG132 and plated at 10 μl/well into compound or DMSO spotted 384 well TC plates. Seeded cells were incubated at 37° C. in a humidified 5% CO2 atmosphere for 6 h. After 6 h, the plates were removed from the incubator and cell lysis was achieved by the addition of 2.5 μl 5×lysis buffer containing protease and phosphatase inhibitors, followed by shaking on a plate shaker at room temperature for 15 min. At the end of this incubation, lysed cells were sequentially treated and incubated with acceptor and donor bead mixes according to the manufacturer's protocol for a 1 plate/2-incubation suspension cell assay (AlphaLISA SureFire Ultra p-IKKa (Ser 176/180) Assay Kit (Perkin Elmer). Plates were read using an EnVision Multilabel Plate Reader (Perkin Elmer). Within an experiment, a concentration response curve for each compound was run in duplicate. The signal obtained in the test wells was normalized using high signal (BAFF stimulated cells, DMSO, MG132) and low signal (unstimulated cells, DMSO) controls. To determine the IC50, a sigmoidal curve was fitted to the plot of % inhibition versus Log10 compound concentration.
Regarding `C[C@H]1Cn2nc(Nc3nccc(-c4cccc(-c5cc([C@]6(O)CCN(C)C6=O)on5)n4)n3)cc2CO1` (single isomer, unassigned) [Example 115, (R)-3-Hydroxy-1-methyl-3-(3-(6-(2-(((*S)-6-methyl-6,7-dihydro-4H-pyrazolo[5,1-c][1,4]oxazin-2-yl)amino)pyrimidin-4-yl)pyridin-2-yl)isoxazol-5-yl)pyrrolidin-2-one], the IC50 was in the range of 50 to 500 nM. For the compound `CC1OCCn2ncc(Nc3nccc(-c4cccc(-c5cc([C@@]6(O)C(=O)N(C)CC6(F)F)on5)n4)n3)c21` (single isomer, unassigned) [Example 116, (R)-4,4-Difluoro-3-hydroxy-1-methyl-3-(3-(6-(2-(((*R)-4-methyl-6,7-dihydro-4H-pyrazolo[5,1-c][1,4]oxazin-3-yl)amino)pyrimidin-4-yl)pyridin-2-yl)isoxazol-5-yl)pyrrolidin-2-one], the IC50 lay within 50 to 500 nM.

With `C[C@@H](Nc1nccc(-c2cccc(-n3cc([C@]4(O)CCN(C)C4=O)nn3)n2)n1)c1cnn(C)c1` (single isomer, unassigned) [Example 118], the IC50 was over 500 nM. As to `C[C@H](Nc1nccc(-c2cccc(-n3cc([C@]4(O)CCN(C)C4=O)nn3)n2)n1)c1cnn(C)c1` (single isomer, unassigned) [Example 119], the IC50 is under 50 nM. For `CN1CC[C@@](O)(c2cc(-c3cccc(-c4ccnc(Nc5cnn(C)c5C(F)(F)F)n4)n3)no2)C1=O` (single isomer, unassigned) [Example 132, (*R)-3-Hydroxy-1-methyl-3-(3-(6-(2-((1-methyl-5-(trifluoromethyl)-1H-pyrazol-4-yl)amino)pyrimidin-4-yl)pyridin-2-yl)isoxazol-5-yl)pyrrolidin-2-one], the IC50 is under 50 nM.

`CN1CC[C@@](O)(c2cc(-c3cccc(-c4ccnc(Nc5cnn([C@H]6CCN(C7COC7)C6)c5)n4)n3)no2)C1=O` (single isomer, unassigned) [Example 140]: the IC50 was under 50 nM. For the compound `CN1CC[C@@](O)(c2cc(-c3cccc(-c4ccnc(Nc5cnn([C@@H]6CCN(C7COC7)C6)c5)n4)n3)no2)C1=O` (single isomer, unassigned) [Example 141], the IC50 was under 50 nM. `C[C@@H](Nc1nccc(-c2cccc(-n3cc([C@]4(O)CCN(C)C4=O)nn3)n2)n1)c1ncccn1` (single isomer, unassigned) [Example 142]: the IC50 was in the range of 50 to 500 nM.

Take `C[C@H](Nc1nccc(-c2cccc(-n3cc([C@]4(O)CCN(C)C4=O)nn3)n2)n1)c1ncccn1` (single isomer, unassigned) [Example 143]: the IC50 was 50 to 500 nM. `C[C@@H](Nc1nccc(-c2cccc(-c3cc([C@]4(O)CCN(C)C4=O)on3)n2)n1)c1cn[nH]c1` (single isomer, unassigned) [Example 148]: the IC50 was under 50 nM. For `C[C@H](Nc1nccc(-c2cccc(-c3cc([C@]4(O)CCN(C)C4=O)on3)n2)n1)c1cn[nH]c1` (single isomer, unassigned) [Example 149] the value was 50 to 500 nM; for `Cc1noc([C@@H](C)Nc2nccc(-c3cccc(-c4cc([C@]5(O)CCN(C)C5=O)on4)n3)n2)n1` (single isomer, unassigned) [Example 150], 50 to 500 nM; for `Cc1noc([C@H](C)Nc2nccc(-c3cccc(-c4cc([C@]5(O)CCN(C)C5=O)on4)n3)n2)n1` (single isomer, unassigned) [Example 151], 50 to 500 nM. With `C[C@@H](Nc1nccc(-c2cccc(-c3cc([C@]4(O)CCN(C)C4=O)on3)n2)n1)c1ccncc1` (single isomer, unassigned) [Example 154], the IC50 lay within 50 to 500 nM.

On to `C[C@H](Nc1nccc(-c2cccc(-c3cc([C@]4(O)CCN(C)C4=O)on3)n2)n1)c1ccncc1` (single isomer, unassigned) [Example 155], for which the IC50 was 50 to 500 nM. In the case of `Cc1cccnc1[C@@H](C)Nc1nccc(-c2cccc(-c3cc([C@]4(O)CCN(C)C4=O)on3)n2)n1` (single isomer, unassigned) [Example 156], the IC50 was in the range of 50 to 500 nM. With `Cc1cccnc1[C@H](C)Nc1nccc(-c2cccc(-c3cc([C@]4(O)CCN(C)C4=O)on3)n2)n1` (single isomer, unassigned) [Example 157], the IC50 is over 500 nM. On to `C[C@@H](Nc1nccc(-c2cccc(-c3cc([C@]4(O)CCN(C)C4=O)on3)n2)n1)c1cnc2ccccn12` (single isomer, unassigned) [Example 160], for which the IC50 is over 500 nM. Turning to `C[C@H](Nc1nccc(-c2cccc(-c3cc([C@]4(O)CCN(C)C4=O)on3)n2)n1)c1cnc2ccccn12` (single isomer, unassigned) [Example 161], the IC50 was 50 to 500 nM. With `CC(C)[C@@H](Nc1nccc(-c2cccc(-c3cc([C@]4(O)CCN(C)C4=O)on3)n2)n1)c1cnn(C)c1` (single isomer, unassigned) [Example 162], the IC50 is over 500 nM. On to `CC(C)[C@H](Nc1nccc(-c2cccc(-c3cc([C@]4(O)CCN(C)C4=O)on3)n2)n1)c1cnn(C)c1` (single isomer, unassigned) [Example 163], for which the IC50 lay in the range of 50 to 500 nM.

Regarding `C[C@@H](Nc1nccc(-c2cccc(-c3cc([C@]4(O)CCN(C)C4=O)on3)n2)n1)c1ccn2ccnc2c1` (single isomer, unassigned) [Example 164], the IC50 was over 500 nM. Then `C[C@H](Nc1nccc(-c2cccc(-c3cc([C@]4(O)CCN(C)C4=O)on3)n2)n1)c1ccn2ccnc2c1` (single isomer, unassigned) [Example 165], with 50 to 500 nM; and `CN1CC[C@@](O)(c2cc(-c3cccc(-c4ccnc(Nc5ccn(C)n5)n4)n3)n(C)n2)C1=O` (single isomer, unassigned) [Example 166, (*R)-3-Hydroxy-1-methyl-3-(1-methyl-5-(6-(2-((1-methyl-1H-pyrazol-3-yl)amino)pyrimidin-4-yl)pyridin-2-yl)-1H-pyrazol-3-yl)pyrrolidin-2-one], with over 500 nM; and `COc1nn(CC(F)F)cc1Nc1nccc(-c2cccc(-c3cnc([C@]4(O)CCN(C)C4=O)s3)n2)n1` (single isomer, unassigned) [Example 188, (*R)-3-(5-(6-(2-((1-(2,2-Difluoroethyl)-3-methoxy-1H-pyrazol-4-yl)amino)pyrimidin-4-yl)pyridin-2-yl)thiazol-2-yl)-3-hydroxy-1-methylpyrrolidin-2-one], with under 50 nM. As to `COc1nn(CC(F)F)cc1Nc1nccc(-c2cccc(-c3cc([C@@]4(O)CCN(C)C4=O)n[nH]3)n2)n1` (single isomer, unassigned) [Example 189, (*R)-3-(5-(6-(2-((1-(2,2-Difluoroethyl)-3-methoxy-1H-pyrazol-4-yl)amino)pyrimidin-4-yl)pyridin-2-yl)-1H-pyrazol-3-yl)-3-hydroxy-1-methylpyrrolidin-2-one], the IC50 was under 50 nM. In the case of `CC1OCCn2ncc(Nc3nccc(-c4cccc(-c5cc([C@]6(O)CCN(C)C6=O)on5)n4)n3)c21` (single isomer, unassigned) [Example 195, (R)-3-Hydroxy-1-methyl-3-(3-(6-(2-(((*R)-4-methyl-6,7-dihydro-4H-pyrazolo[5,1-c][1,4]oxazin-3-yl)amino)pyrimidin-4-yl)pyridin-2-yl)isoxazol-5-yl)pyrrolidin-2-one], the IC50 was under 50 nM. Consider `CN1CC[C@@](O)(c2cc(-c3cccc(-c4ccnc(Nc5cnn(C)c5C(F)F)n4)n3)no2)C1=O` (single isomer, unassigned) [Example 198, (*R)-3-(3-(6-(2-((5-(Difluoromethyl)-1-methyl-1H-pyrazol-4-yl)amino)pyrimidin-4-yl)pyridin-2-yl)isoxazol-5-yl)-3-hydroxy-1-methylpyrrolidin-2-one], for which the IC50 is under 50 nM.

`COCCn1ccc(Nc2nccc(-c3cccc(-c4cc([C@]5(O)CCN(C)C5=O)on4)n3)n2)n1` (single isomer, unassigned) [Example 199, (*R)-3-Hydroxy-3-(3-(6-(2-((1-(2-methoxyethyl)-1H-pyrazol-3-yl)amino)pyrimidin-4-yl)pyridin-2-yl)isoxazol-5-yl)-1-methylpyrrolidin-2-one]: the IC50 was under 50 nM. Consider `CN1CC[C@H](n2cc(Nc3nccc(-c4cccc(-c5cc([C@]6(O)CCN(C)C6=O)on5)n4)n3)cn2)[C@@H](F)C1` (single isomer, unassigned) [Example 201], for which the IC50 was under 50 nM.
